Data published in the supplement of paper PMC13380429.

Tests used:
Settings in all cases: 72 h
[1] = system: HepG2; experiment: drug sensitivity score (DSS) for viability; higher = more toxic; extreme values may be limits of the assay
[2] = system: Vero E6; experiment: as above
[3] = system: Calu-3; experiment: as above
[4] = system: Caco-2; experiment: as above
[5] = system: U2OS; experiment: as above
[6] = system: HepG2; experiment: cell viability relative to DMSO; higher = less toxic
[7] = system: Vero E6; experiment: as above
[8] = system: Calu-3; experiment: as above
[9] = system: Caco-2; experiment: as above
[10] = system: U2OS; experiment: as above
[11] = system: HepG2; experiment: relative viability EC50 (midpoint between 100% and the lowest measured viability); higher = less toxic
[12] = system: Vero E6; experiment: as above
[13] = system: Calu-3; experiment: as above
[14] = system: Caco-2; experiment: as above
[15] = system: U2OS; experiment: as above

SMILES | drug sensitivity score [1] | drug sensitivity score [2] | drug sensitivity score [3] | drug sensitivity score [4] | drug sensitivity score [5] | cell viability ([6]; 1 nM) | cell viability ([6]; 10 nM) | cell viability ([6]; 100 nM) | cell viability ([6]; 1000 nM) | cell viability ([6]; 10000 nM) | cell viability ([7]; 1 nM) | cell viability ([7]; 10 nM) | cell viability ([7]; 100 nM) | cell viability ([7]; 1000 nM) | cell viability ([7]; 10000 nM) | cell viability ([8]; 1 nM) | cell viability ([8]; 10 nM) | cell viability ([8]; 100 nM) | cell viability ([8]; 1000 nM) | cell viability ([8]; 10000 nM) | cell viability ([9]; 1 nM) | cell viability ([9]; 10 nM) | cell viability ([9]; 100 nM) | cell viability ([9]; 1000 nM) | cell viability ([9]; 10000 nM) | cell viability ([10]; 1 nM) | cell viability ([10]; 10 nM) | cell viability ([10]; 100 nM) | cell viability ([10]; 1000 nM) | cell viability ([10]; 10000 nM) | relative viability EC50 [11] | relative viability EC50 [12] | relative viability EC50 [13] | relative viability EC50 [14] | relative viability EC50 [15]
CCC(=O)NC1CCc2cccc(OC)c2C1 (stereo not given) [8-M-PDOT] | 0 | 0 | 0 | 0 | 0 | 100% | 94.6% | 101% | 99.1% | 102% | 99.6% | 106% | 98.5% | 103% | 106% | 109% | 112% | 102% | 97.6% | 112% | 100% | 99.5% | 99.3% | 98.7% | 119% | 104% | 97.9% | 103% | 101% | 109% | > 10 µM | > 10 µM | > 10 µM | > 10 µM | > 10 µM
Cc1oc(-c2ccccc2)nc1CCC(=O)c1ccc(CC2SC(=O)NC2=O)cc1 (stereo not given) [darglitazone] | 0 | 4.8 | 0 | 0 | 0 | 96.9% | 95% | 95.8% | 96.3% | 95.4% | 96% | 90.8% | 83.3% | 76% | 83.3% | 97.4% | 110% | 114% | 111% | 119% | 102% | 95.5% | 96.2% | 91.9% | 91.2% | 109% | 98.7% | 102% | 102% | 103% | > 10 µM | > 10 µM | > 10 µM | > 10 µM | > 10 µM
O=C(c1cc2ccccc2o1)N1CCN(Cc2ccccc2)CC1 [befuraline] | 0 | 0 | 0 | 0 | 0 | 102% | 97% | 101% | 94.1% | 102% | 113% | 97.2% | 106% | 103% | 96.7% | 94.1% | 97.8% | 100% | 93.8% | 90.7% | 85% | 91% | 88.8% | 99.2% | 84.4% | 95.8% | 97.6% | 95.1% | 98% | 94.6% | > 10 µM | > 10 µM | > 10 µM | > 10 µM | > 10 µM
CC(=O)S[C@@H]1CC2=CC(=O)CC[C@]2(C)[C@H]2CC[C@@]3(C)[C@@H](CC[C@@]34CCC(=O)O4)[C@H]12 [spironolactone] | 0 | 0 | 0 | 0 | 0 | 104% | 99.7% | 110% | 107% | 107% | 101% | 97.2% | 97.1% | 88.7% | 102% | 90.7% | 95.4% | 99.1% | 94.5% | 102% | 95.1% | 96.7% | 100% | 99.6% | 102% | 92.9% | 98.6% | 97.4% | 101% | 102% | > 10 µM | > 10 µM | > 10 µM | > 10 µM | > 10 µM
